According to the NIST ThermoML archive (doi:10.1021/je4009238):
± gives the expanded uncertainty stated by the source.

Assay: xn = mol fraction of the nth substance listed
Conditions: 101 kPa, Liquid

CCn1cc[n+](C)c1.[Cl-] [1-ethyl-3-methylimidazolium chloride] + CN(C)C=O
Conditions | mass density, 298.15 K [kg/m3] | mass density, 308.15 K [kg/m3] | mass density, 318.15 K [kg/m3] | viscosity, 298.15 K [mPa·s] | viscosity, 308.15 K [mPa·s] | viscosity, 318.15 K [mPa·s]
x1 = 0.0102 | 949.52 ± 0.86 | 940.08 ± 0.92 | 930.6 ± 0.98 | 0.8935 ± 0.11 | 0.7902 ± 0.1 | 0.7059 ± 0.097
x1 = 0.0203 | 954.18 ± 0.84 | 944.84 ± 0.89 | 935.4 ± 0.95 | 1.007 ± 0.11 | 0.8895 ± 0.11 | 0.794 ± 0.1
x1 = 0.031 | 958.86 ± 0.81 | 949.62 ± 0.86 | 940.37 ± 0.92 | 1.03 ± 0.11 | 0.9058 ± 0.11 | 0.8045 ± 0.1
x1 = 0.0417 | 963.18 ± 0.78 | 954.02 ± 0.84 | 944.85 ± 0.89 | 1.147 ± 0.12 | 1.004 ± 0.11 | 0.8901 ± 0.11
x1 = 0.0524 | 967.27 ± 0.76 | 958.21 ± 0.81 | 949.12 ± 0.87 | 1.198 ± 0.12 | 1.045 ± 0.11 | 0.923 ± 0.11
x1 = 0.0635 | 971.86 ± 0.73 | 962.87 ± 0.79 | 953.87 ± 0.84 | 1.312 ± 0.13 | 1.139 ± 0.12 | 1.002 ± 0.11
x1 = 0.0752 | 976.05 ± 0.71 | 967.15 ± 0.76 | 958.24 ± 0.81 | 1.501 ± 0.14 | 1.297 ± 0.13 | 1.136 ± 0.12
x1 = 0.0867 | 980.59 ± 0.68 | 971.78 ± 0.73 | 962.96 ± 0.79 | 1.577 ± 0.14 | 1.355 ± 0.13 | 1.181 ± 0.12
x1 = 0.0988 | 984.64 ± 0.65 | 975.93 ± 0.71 | 967.2 ± 0.76 | 1.784 ± 0.15 | 1.527 ± 0.14 | 1.327 ± 0.13
x1 = 0.1107 | 988.67 ± 0.63 | 980.02 ± 0.68 | 971.44 ± 0.74 | 1.879 ± 0.16 | 1.625 ± 0.15 | 1.404 ± 0.13
x1 = 0.1232 | 992.88 ± 0.61 | 984.31 ± 0.66 | 975.73 ± 0.71 | 2.014 ± 0.17 | 1.705 ± 0.15 | 1.468 ± 0.14
x1 = 0.1361 | 997.07 ± 0.58 | 988.59 ± 0.63 | 980.13 ± 0.69 | 2.278 ± 0.18 | 1.916 ± 0.16 | 1.64 ± 0.15
x1 = 0.1489 | 1001.24 ± 0.57 | 992.84 ± 0.61 | 984.44 ± 0.66 | 2.453 ± 0.19 | 2.051 ± 0.17 | 1.748 ± 0.15
x1 = 0.1626 | 1005.4 ± 0.6 | 997.09 ± 0.59 | 988.83 ± 0.64 | 2.672 ± 0.21 | 2.251 ± 0.18 | 1.905 ± 0.16
x1 = 0.1759 | 1009.49 ± 0.63 | 1001.24 ± 0.58 | 993.01 ± 0.61 | 2.922 ± 0.22 | 2.406 ± 0.19 | 2.02 ± 0.17
